Measured values as given in patent US12239645B2, “Targeted dosing for the treatment of complement mediated disorders” (Achillion Pharmaceuticals, Inc., priority 2018, dated 2025).

What was measured:
[1] = system: Bb fragment of complement Factor B; test: SAD study: Bb plasma concentrations; type: in vivo, human; conditions: for mean Bb plasma concentration: eight hours post-dosing
Description: […] were dosed and evaluated in 4 dose groups with ten subjects receiving placebo (Table 1). The first dose group had 6 active and 6 placebo subjects; subsequent groups had 6 active and 2 placebo subjects each. Each group was followed for 28 days after dosing. All subjects were monitored for safety through the last scheduled visit at Day 28. Blood and urine samples were collected at predefined time points from Days 1 to 4 to determine plasma and urine concentrations of Compound 1 and from Days 1 to 7 to determine complement related activities. Results of serum AP activity measured by AP Wieslab assay as well as plasma Bb, factor D level and several other PD biomarkers were determined.
A graphical display of mean plasma Bb concentrations through Day 7 (reported in days) and within 24 hours of dosing (by randomized treatment group and overall) can be found in FIG. 9B and FIG. 9A, respectively. All Compound 1 dose groups evaluated had significant reductions in Bb plasma concentrations after single dose administration relative to baseline and the placebo-treated group as illustrated in FIG. 9A and FIG. 9B. Although the number of subjects evaluated in individual dose groups was relatively small (n=6), the magnitude of changes observed appeared to be dose-dependent. At baseline, the 40 mg, 80 mg, and 120 mg dose groups had Bb plasma concentrations within the normal reference range for the assay (i.e., 0.49 to 1.42 μg/mL); 40 mg, 80 mg, and 120 mg dose groups had mean (±SD) baseline values of 0.80 (±0.195) μg/mL, 0.78 (±0.128) μg/mL, and 0.70 (±0.095) μg/mL, respectively. Bb plasma concentrations reached a nadir 6 hours (in the 40 mg dose group) to 8 hours (in the 80 mg and 120 mg dose groups) post-dosing. Six hours post-dosing, mean (±SD) Bb plasma concentration in the 40 mg dose group had decreased to 0.51 (±0.091) μg/mL. Eight hours post-dosing, mean Bb plasma concentration had decreased to 0.48 (±0.056) μg/mL for the 80 mg dose group and 0.40 (±0.029) μg/mL for the 120 mg dose group. For the 80 mg and 120 mg dose groups, mean Bb plasma concentrations increased to above the LLN for the assay by 10 hours post-dosing (for the 80 mg dose group) and 24 hours (Day 2) (for the 120 mg dose group) post-dosing, respectively, with return to baseline values by 48 hours (Day 3) post-dosing. No subjects had treatment-emergent abnormalities in Bb plasma concentrations during the study.

[2] = system: Bb fragment of complement Factor B; test: MAD study single-dose cohorts: plasma Bb concentration by ELISA; type: in vivo, human; conditions: 240 mg single dose
Description: FIG. 15 is a graphical display of mean plasma Bb concentration as determined by ELISA assay for all subjects in the first 24 hours after administration of Compound 1 at single doses of 240 mg in fasted subjects (n=6), 120 mg in fed subjects (n=6) and placebo (n=4). Horizontal dashed gridlines represent: upper limit of normal (1.42 μg/ml); lower limit of normal (0.48 μg/ml); and lower limit of quantitation (LLOQ) (0.33 μg/ml). The x-axis is Time in hours and the y-axis is Mean Plasma Bb Concentration measured in μg/mL.
Serum AP hemolysis activity was assessed in samples collected at predefined time points from Day 1 (pre-dose) through Day 7. Ex vivo serum AP inhibition was more prolonged in the 240 mg dose group than previously observed in the SAD study at doses up to 120 mg (FIG. 14). […] Mean pre-dose (Day 1, 0 h) activity among active subjects was 123.02% (240 mg) and 110.43% (120 mg). Activity was reduced to 10% or lower from 1.5 h through 16 h in the 240 mg group, and from 2 h through 6 h in the 120 mg group. Activity was recovered to nearly pre-dose levels by 48 hours. AP activity in placebo subjects in contrast varied little from the pre-dose value of 109.52%, with a minimum value among all time points of 81.46%. […]

CC(=O)c1nn(CC(=O)N2[C@H](C(=O)Nc3nc(Br)ccc3C)C[C@@]3(C)C[C@@H]23)c2ccc(-c3cnc(C)nc3)cc12 [Compound 1, (1R,3S,5R)-2-(2-(3-acetyl-5-(2-methylpyrimidin-5-yl)-1H-indazol-1-yl)acetyl)-N-(6-bromo-3-methylpyridin-2-yl)-5-methyl-2-azabicyclo[3.1.0]hexane-3-carboxamide]
time of Bb plasma concentration nadir post-dosing ([1]; 40 mg dose group): 6 h | mean (±SD) Bb plasma concentration ([1]; 40 mg single dose, six hours post-dosing): 0.51 (±0.091) μg/mL | time of Bb plasma concentration nadir post-dosing ([1]; 80 mg and 120 mg dose groups): 8 h | time for mean Bb plasma concentration to increase above the LLN ([1]; 80 mg dose group): ≤ 10 h | mean Bb plasma concentration ([1]; 80 mg single dose): 0.48 (±0.056) μg/mL | time for mean Bb plasma concentration to increase above the LLN ([1]; 120 mg dose group): ≤ 24 h | mean Bb plasma concentration ([1]; 120 mg single dose): 0.40 (±0.029) μg/mL | time of Bb return to baseline values post-dosing ([1]; SAD dose groups): ≤ 48 h | time plasma Bb remained near its nadir post-dose [2]: at least 16 hours
